pIC50: −log10 of the molar value.
Target: Endoplasmic reticulum aminopeptidase 2 (Homo sapiens, UniProt Q6P179)
Experiment: Inhibition of recombinant ERAP2 (unknown origin) expressed in baculovirus infected insect cells using L-arginine-7-amido-4-methylcoumarine as substrate by spectrofluorimetric assay

Sequence of Endoplasmic reticulum aminopeptidase 2 (Q6P179 whole entry): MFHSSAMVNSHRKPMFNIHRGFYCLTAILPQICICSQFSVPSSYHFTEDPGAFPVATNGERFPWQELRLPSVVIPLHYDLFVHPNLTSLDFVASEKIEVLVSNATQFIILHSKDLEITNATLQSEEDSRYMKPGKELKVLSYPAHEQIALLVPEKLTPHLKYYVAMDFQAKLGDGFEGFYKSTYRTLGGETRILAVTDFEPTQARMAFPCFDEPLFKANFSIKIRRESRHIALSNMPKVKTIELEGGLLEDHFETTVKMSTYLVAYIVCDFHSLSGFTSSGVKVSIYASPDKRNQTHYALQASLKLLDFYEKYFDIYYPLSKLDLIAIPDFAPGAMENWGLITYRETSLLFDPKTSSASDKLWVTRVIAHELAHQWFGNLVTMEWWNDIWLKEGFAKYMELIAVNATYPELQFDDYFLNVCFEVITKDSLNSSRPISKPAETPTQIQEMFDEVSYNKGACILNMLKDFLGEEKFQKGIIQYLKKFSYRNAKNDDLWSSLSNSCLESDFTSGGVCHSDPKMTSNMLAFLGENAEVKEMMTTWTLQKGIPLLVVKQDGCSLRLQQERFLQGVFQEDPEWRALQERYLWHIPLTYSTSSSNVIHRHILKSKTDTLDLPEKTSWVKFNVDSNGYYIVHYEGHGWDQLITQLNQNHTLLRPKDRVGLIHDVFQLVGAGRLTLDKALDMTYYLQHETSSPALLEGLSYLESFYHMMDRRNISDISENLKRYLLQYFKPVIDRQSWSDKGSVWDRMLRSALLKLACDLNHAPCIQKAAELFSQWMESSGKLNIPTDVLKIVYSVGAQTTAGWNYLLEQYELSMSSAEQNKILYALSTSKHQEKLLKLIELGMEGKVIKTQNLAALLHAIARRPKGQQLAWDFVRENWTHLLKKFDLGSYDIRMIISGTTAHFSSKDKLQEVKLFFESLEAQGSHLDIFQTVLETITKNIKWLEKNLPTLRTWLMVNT

- pIC50: < 4.00
SMILES: O=C(NO)C(Cc1ccc(F)cc1)C(=O)NCc1ccccc1 (stereo unspecified)

Reference: ChEMBL document CHEMBL3877337, “Crystal Structures of ERAP2 Complexed with Inhibitors Reveal Pharmacophore Requirements for Optimizing Inhibitor Potency” (ACS Med Chem Lett, 2017)
